Type in all cases: physicochemical
The nature of data set [1]: Aerosolisation efficiency of 500/25 FP/SX combination DPI formulation, NGI via Cyclohaler. To be noted: 500/25 formulation. On the procedure: Following content uniformity testing, […] of the blend containing the FP sample 3 blend or Advair was loaded into size 3 hydroxypropylmethyl cellulose capsules (HPMC, Shionogi Qualicaps S A, Basingstoke, UK). The capsules were stored at 44% RH for 24 h prior to in vitro performance testing.
(§1) Testing was performed using a Next Generation Impactor (NGI) with pre-separator, which was connected to a vacuum pump (GE Motors). Prior to testing, the pre-separator was filled with 15 ml of mobile phase and the cups of the NGI cups were coated with 1% v/v silicone oil in hexane to eliminate particle bounce.
For each experiment, two individual capsules of the same formulation were discharged into the NGI at 90 Lpm for 2.8 s via a Cyclohaler (TEVA Pharmaceuticals, Netherlands) to ensure both devices were operated such that 4 kPa pressure drop was generated.
(§2) Following aerosolization, the NGI apparatus was dismantled and the inhaler, capsules and each part of the NGI was washed down into known volumes of HPLC mobile phase. The mass of drug deposited on each part of the NGI was determined by HPLC. This protocol was repeated three times for each blend, following which, the fine particle dose (FPD) and fine particle fraction of the loaded dose (FPFLD) were determined. The FPD represented the mass of drug that was collected on stages 3-8 of the NGI.

Data set [2] is described as follows: Aerosolisation efficiency of combination DPI formulations FP/micronized SX 500/50, NGI via Rotahaler and Cyclohaler, incl. 1 month storage. The following applies: for % FPF under stressed storage conditions: 1 month at 25° C./75% RH; for FPF of FP compared with micronized sample: T=0, Cyclohaler; for FPF of FP compared with micronized sample / FPF of FP compared with other samples: 500/50 blend with micronized SX; for FPF of FP compared with other samples: T=0, Rotahaler. On the procedure: The aerosolisation efficiency of samples 2, 3 and 4 of fluticasone propionate (FP) produced as described in Example 2 was assessed in combination dry powder inhaler (DPI) formulations containing micronized salmeterol xinafoate (SX) using a Rotahaler® unit dose DPI device (GSK, Ware, UK) and Cyclohaler® unit dose DPI device (TEVA Pharmaceuticals, Netherlands).
The aerosolization efficiency was evaluated in combination DPI formulations also containing micronized SX. Each combination formulation contained 0.16000 g FP (sample 2, 3 or 4), 0.02320 g SX and 3.8168 g lactose (ML001, DMV-Fonterra, Vehgel, Netherlands) and was prepared by geometric mixing. Following this, each blend was subsequently prepared using a Turbula T2F (Willy A Bachofen A G, Basel, Switzerland) at 46 rpm for 45 minutes. The blend strength of each combination formulation equated to 500 μg FP and 50 μg Salmeterol base. This matches the dose strength of Advair 500/50. A sample of Advair 500/50 was used as the micronized example. The aerolisation efficiency of four different formulations containing FP samples 2, 3, 4 or micronized FP was measured.
Following content uniformity testing, 12.5±0.5 mg of each blend was loaded into size 3 hydroxypropylmethyl cellulose capsules (HPMC, Shionogi Qualicaps S A, Basingstoke, UK). The capsules were stored at 44% RH for 24 h prior to in vitro performance testing.
as §1
For each experiment, two individual capsules of the same formulation were discharged into the NGI at 60 Lpm for 4 s via a Rotahaler (GSK, Ware, UK) and 90 Lpm for 2.8 s via a Cyclohaler (TEVA Pharmaceuticals, Netherlands) to ensure both devices were operated such that 4 kPa pressure drop was generated.
Additionally, blisters from a commercially available Advair 500/50 Diskus (GSK, USA) were emptied and 12.5 mg of formulation was transferred into size 3 HPMC capsules and discharged into a NGI at 60 Lpm for 4 s via a Rotahaler and at 90 Lpm for 2.8 s via a Cyclohaler.
as §2

Data set [3] in a line: Particle size by Sympatec HELOS laser diffraction / optical microscopy. To be noted: for D(10) / D(50) / D(90): Sympatec HELOS laser diffraction. An excerpt: The particle size can be measured by laser diffraction techniques: Light from a laser is shone into a cloud of particles, which are suspended in a transparent gas such as air. The particles scatter the light; smaller particles scattering the light at larger angles than bigger particles. The scattered light can be measured by a series of photodetectors placed at different angles. This is known as the diffraction pattern for the sample. The diffraction pattern can be used to measure the size of the particles using well documented light scattering theory. The particles are assumed to be spherical but few particles are actually spherical. The particle diameters are calculated from the measured volume of the particle, but assume a sphere of equivalent volume.
Budesonide (5 g) was dissolved in 100 mL of dichloromethane. The samples of budesonide powder collected in the ultrasonic chamber were produced using a Büchi-290 laboratory-scale spray dryer […], Büchi, Switzerland). The solution was atomized using nitrogen at 7 bar flowing at approximately at 10 Lpm (Litre/minute). The aspirator was set at 100% and flow rate of solution was set to […]. The gas temperature was set to 120° C. Budesonide particles were collected the ultrasonic chamber connected to the end of high performance cyclone separator. In order to apply ultrasound to the spray dried particles, the collection ultrasonic chamber was filled with heptane thermoregulated at 25° C. and was fitted with an ultrasonic probe resonating at 20 kHz. Ultrasound at 20 W power was applied between 30 minutes and 1 hour. The resulting particle slurry was spray dried and particles characterized by optical microscopy and DSC (Differential Scanning calorimetry). The size of the particles were typically in the range of 1-7 μm.
The D(10), D(50), D(90) for two representative samples were 1.21, 3.03, 4.63 μm and 1.05, 2.99, 3.76 μm respectively as determined by Sympatec HELOS laser diffraction. […]

Data set [4] is described as follows: pMDI formulation, particle fraction distribution on NGI stages. To be noted: stage 5 cut-off 1.36 μm, listed as micronized material. As to the method: Both samples were produced in a similar manner to sample 2 of Example 2. Sample 1 was prepared from atomization of a 3% solution of fluticasone propionate in 20% dichloromethane in methanol (3 g in 100 ml) and Sample 5 was prepared from atomization of 3% solution in acetone (3 g in 100 ml). […] The FPF values were 11.80% and 13.80% on stage 5 for samples 5 and 1 respectively compared with 6.20% for micronized material.

The mark [5] stands for this setting: Cyclohaler 90 Lpm, NGI stages 3-8.

`CCC(=O)O[C@]1(C(=O)SCF)[C@H](C)C[C@H]2[C@@H]3C[C@H](F)C4=CC(=O)C=C[C@]4(C)[C@@]3(F)[C@@H](O)C[C@@]21C` [Sample 3, Fluticasone propionate]: in data set [1] (Cyclohaler), the “fine particle fraction for SX” value is 44% and the “fine particle fraction for the engineered FP” value is 15.8%. Moreover, in data set [1] (setting [5]), the “FPD for FP” value was determined as 79 µg and the “FPD for SX” value is 11 µg. Further, in data set [2], the “% FPF under stressed storage conditions” value was “not significantly affected”; the “FPF of FP compared with micronized sample” value is recorded as “greater than the micronized sample”; the “FPF of FP compared with other samples” value is “greater than sample 4 and the micronized sample”. Also, in data set [3], the “D(10)” value is on record as 0.99 μm, the “D(50)” value is 2.55 μm and the “D(90)” value worked out at 4.97 μm.
With `CCC(=O)O[C@]1(C(=O)SCF)[C@H](C)C[C@H]2[C@@H]3C[C@H](F)C4=CC(=O)C=C[C@]4(C)[C@@]3(F)[C@@H](O)C[C@@]21C` [Sample 2, Fluticasone propionate], in data set [2], the “% FPF under stressed storage conditions” value is “not significantly affected”; the “FPF of FP compared with micronized sample” value is “greater than the micronized sample”; the “FPF of FP compared with other samples” value was “greater than sample 4 and the micronized sample”. In data set [3], the “D(10)” value is reported as 1.35 μm, the “D(50)” value was 3.25 μm and the “D(90)” value is 5.63 μm. The “size of the particles, typical range” value in data set [3] (after ultrasound treatment and spray drying of slurry) is listed as 1-6 μm.
For `CCC(=O)O[C@]1(C(=O)SCF)[C@H](C)C[C@H]2[C@@H]3C[C@H](F)C4=CC(=O)C=C[C@]4(C)[C@@]3(F)[C@@H](O)C[C@@]21C` [Sample 4, fluticasone propionate, reference compound], in data set [2], the “% FPF under stressed storage conditions” value is “not significantly affected”, the “FPF of FP compared with micronized sample” value was “greater than the micronized sample” and the “FPF of FP compared with other samples” value is on record as “poor performance”. In addition, in data set [3], the “D(10)” value worked out at 1.14 μm, the “D(50)” value is given as 2.67 μm and the “D(90)” value is reported as 5.11 μm.
For the compound `CCC(=O)O[C@]1(C(=O)SCF)[C@H](C)C[C@H]2[C@@H]3C[C@H](F)C4=CC(=O)C=C[C@]4(C)[C@@]3(F)[C@@H](O)C[C@@]21C` [micronized FP, Fluticasone Propionate], the “FPF on stage 5 of the NGI” value in data set [4] is given as 6.20%. For the same compound, the “% FPF under stressed storage conditions” value in data set [2] was “not significantly affected”.

Values taken from US20110146678A1, “PROCESS FOR IMPROVING CRYSTALLINITY” (priority 2008, published 2011).
